Literature values, collected in patent US20230303507A1, “RIGID C[…] AS POTENT MODULATORS OF CANNABINOID RECEPTORS AND USES THEREOF” (priority 2020, published 2023).

Molecular target: CB2 (Homo sapiens, UniProt P34972)
Sequence (P34972 whole entry, species assumed): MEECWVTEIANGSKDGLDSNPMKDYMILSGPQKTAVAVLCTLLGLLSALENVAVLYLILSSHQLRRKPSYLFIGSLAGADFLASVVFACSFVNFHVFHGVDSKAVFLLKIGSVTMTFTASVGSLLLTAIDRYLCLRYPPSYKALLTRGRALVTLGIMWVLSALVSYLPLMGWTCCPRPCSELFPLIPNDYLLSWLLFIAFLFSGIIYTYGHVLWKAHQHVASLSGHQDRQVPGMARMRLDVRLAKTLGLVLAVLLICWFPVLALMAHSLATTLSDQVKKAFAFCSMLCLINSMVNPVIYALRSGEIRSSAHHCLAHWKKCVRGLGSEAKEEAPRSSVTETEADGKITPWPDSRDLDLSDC

SMILES: C=C(C)[C@@H]1CCC(C)=C[C@H]1c1c(O)cc(CCCCC)cc1O [CBD, cannabidiol]
- mode of action on CB2: weak inverse agonist

SMILES: CCCCCc1cc(O)c2c(c1)OC(C)(C)[C@@H]1CCC(C)=C[C@@H]21 [THC, delta-9-tetrahydrocannabinol]
- mode of action on CB2: partial agonist
